For 17 compounds, IC50 and EC50 results are on record in US20230277534A1 (Plexxikon Inc., priority 2011, published 2023).

The structures appear in SMILES notation. Where only a bound is given, the exact number is not on record here.

One may read the IC50 as the concentration that inhibits the measured activity by half. The low end stands for higher potency, the high end for lower potency. Broadly, the EC50 is the concentration that produces a half-maximal response. Low readings indicate an effect from little substance, high ones a need for much substance.

Experiment [1] concerns COLO205 colon adenocarcinoma cells (B-Raf V600E mutation). Put plainly: COLO205 cell growth inhibition (ATPlite). To be noted: Homo sapiens, COLO 205, 72 h, 3 days. Format: cell-based. The procedure, abridged: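 Cells treated for 3 days at 37 °C, 5% CO2 with an 8-point 1:3 dilution series, top final concentration 10 μM, DMSO control. ATPlite luminescence used as a measure of cell number; IC50 from reading versus concentration.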
For orientation: In ATP-based viability assays light output follows the ATP content of the culture.

Experiment [2] has as its target B-Raf V600E (Homo sapiens (Human), UniProt P15056, V600E). The experiment in a line: B-Raf V600E kinase biochemical activity assay (AlphaScreen, biotin-MEK1 substrate). To be noted: 100 μM ATP. The procedure, abridged: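 B-Raf V600E (0.1 ng) phosphorylated 100 nM biotin-MEK1 with 100 μM ATP (final) in HEPES pH 7.0 with Mg2+/Mn2+ for 45 min at room temperature. Compounds were tested over an 8-point serial dilution. Phospho-MEK1/2 was detected by AlphaScreen after 3 h with beads, and IC50 came from signal versus concentration.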
(Alpha assays give light when donor and acceptor beads are brought close together.)

Experiment [3] relates to IPC-298 human melanoma cell line that expresses activated NRAS. Put plainly: IPC-298_P-ERK cell activation assay (phosphorylated ERK, AlphaScreen). Type of experiment: cell-based. To be noted: 1 h, IPC-298 cells, P-ERK activation, compound for one hour. Here is the method: B9 is a squamous cell carcinoma cell line expressing activated HRAS that was isolated from a DMBA/TPA-induced mouse model of skin carcinogenesis (Stoler, et al. The Journal of Cell Biology, 1993, 122(5), 1103-17). IPC-298 is a human melanoma cell line that expresses activated NRAS (Aubert, et al. International Journal of Cancer, 1993, 54(5), 784-92). To determine whether compounds induce phosphorylated ERK and MEK, cells are plated in a 96-well dish and treated with an 8-point titration of compound for one hour at 37° C. The media is then removed and the cells are incubated with lysis buffer containing protease and phosphatase inhibitors. Phosphorylated ERK and MEK in the resulting lysates is detected using AlphaScreen™ technology. To detect phosphorylated ERK, cell lysates are incubated with streptavidin-coated donor beads, anti-mouse IgG acceptor beads, a biotinylated anti-ERK1/2 rabbit antibody, and a mouse antibody that recognizes ERK1/2 only when it is phosphorylated on Thr202 and Tyr204. The biotinylated ERK1/2 antibody will bind to both the streptavidin-coated donor beads and to ERK1/2 (regardless of its phosphorylation state), and the phospho-ERK1/2 antibody will bind to the acceptor beads and to ERK1/2 that is phosphorylated at Thr202/Tyr204. Excitation of the beads with laser light at 680 nm produces singlet oxygen, which is rapidly quenched unless the beads are in close proximity. When ERK is phosphorylated, both antibodies can bind the same protein, bringing the donor and acceptor beads into close proximity, producing a signal that can be measured at 580 nm. MEK phosphorylation is detected using a similar approach, only with antibodies directed against total MEK1/2 and MEK1/2 that is phosphorylated at Ser217 and Ser221.

The test system of experiment [4] is A375 melanoma cells (B-Raf V600E mutation). Put plainly: A375 (A375_P-ERK) cell activity / cell growth inhibition. Type of experiment: cell-based. To be noted: Homo sapiens, A-375. Here is the method: Compounds are assessed in a variety of cell based assays.
On day 1, cells are counted, then centrifuged in a conical tube for 5 minutes at 1000 rpm.
On day 2, compound at a maximum concentration of 5 mM is serially diluted 1:3 (e.g. 10 μL with 30 μL dimethyl sulfoxide) for a total of 8 point titration with DMSO as a control. A 1 μL aliquot of each dilution point and control is added to 249 μL growth media and 50 μL is added to a well containing cells, providing 10 μM compound at the maximum concentration point. The cells are incubated for 3 days at 37° C. in 5% CO2.
ATPlite is added 25 μL to each well, shake for 2 minutes, and the cells are incubated at room temperature for 10 minutes, then luminescence is read on Safire reader. The measured luminescence correlates directly with cell number, such that the reading as a function of compound concentration is used to determine the IC50 value.

Chain of B-Raf V600E (P15056 whole entry V600E): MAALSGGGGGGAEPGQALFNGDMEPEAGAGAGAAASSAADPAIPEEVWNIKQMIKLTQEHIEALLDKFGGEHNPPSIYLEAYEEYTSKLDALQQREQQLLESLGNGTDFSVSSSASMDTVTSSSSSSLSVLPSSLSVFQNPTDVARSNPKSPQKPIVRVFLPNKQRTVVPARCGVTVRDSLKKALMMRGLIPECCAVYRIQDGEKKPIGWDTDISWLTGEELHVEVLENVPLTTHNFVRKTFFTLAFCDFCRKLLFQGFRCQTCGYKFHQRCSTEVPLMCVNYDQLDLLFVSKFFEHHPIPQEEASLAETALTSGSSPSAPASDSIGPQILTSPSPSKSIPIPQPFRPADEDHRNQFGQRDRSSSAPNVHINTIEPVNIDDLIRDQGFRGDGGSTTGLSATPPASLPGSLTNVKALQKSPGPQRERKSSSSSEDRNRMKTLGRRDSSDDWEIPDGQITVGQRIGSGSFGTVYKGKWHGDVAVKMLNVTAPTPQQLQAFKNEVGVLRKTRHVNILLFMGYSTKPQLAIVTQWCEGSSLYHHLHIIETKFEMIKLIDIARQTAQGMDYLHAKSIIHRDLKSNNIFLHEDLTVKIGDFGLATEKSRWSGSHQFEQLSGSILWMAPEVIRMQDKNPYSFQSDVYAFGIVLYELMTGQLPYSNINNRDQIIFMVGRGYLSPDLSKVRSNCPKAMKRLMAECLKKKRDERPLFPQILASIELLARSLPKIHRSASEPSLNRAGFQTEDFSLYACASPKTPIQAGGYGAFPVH

Consider `CC(C)c1ncc(-c2cnc3[nH]cc(C(=O)c4cccc(NS(=O)(=O)N(C)C)c4F)c3c2)cn1` [Compound P-0051, 3-[3-(dimethylsulfamoylamino)-2-fluoro-benzoyl]-5-(2-isopropylpyrimidin-5-yl)-1H-pyrrolo[2,3-b]pyridine], for which the concentration for half-maximal inhibition (IC50) in experiment [1] was below 1 µM; in experiment [2], below 0.1 µM. The compound further gave an EC50 in experiment [3] above 10 µM.
Regarding `CN(C)S(=O)(=O)Nc1cccc(C(=O)c2c[nH]c3ncc(-c4cnc(C5CC5)nc4)cc23)c1F` [Compound P-0052, 5-(2-cyclopropylpyrimidin-5-yl)-3-[3-(dimethylsulfamoylamino)-2-fluoro-benzoyl]-1H-pyrrolo[2,3-b]pyridine], the IC50 in experiment [1] was below 1 µM; in experiment [2], below 0.1 µM. The EC50 in experiment [3] was above 10 µM.
The like results for `CN(C)S(=O)(=O)Nc1cccc(C(=O)c2c[nH]c3ncc(-c4ccc(C(F)(F)F)nc4)cc23)c1F` [Compound P-0053, 3-[3-(dimethylsulfamoylamino)-2-fluoro-benzoyl]-5-[6-(trifluoromethyl)-3-pyridyl]-1H-pyrrolo[2,3-b]pyridine] were, in that order, below 1 µM, below 0.1 µM and above 10 µM.
The like results for `COc1cc(-c2cnc3[nH]cc(C(=O)c4cccc(NS(=O)(=O)N(C)C)c4F)c3c2)ccc1C#N` [Compound P-0054, 5-(4-cyano-3-methoxy-phenyl)-3-[3-(dimethylsulfamoylamino)-2-fluoro-benzoyl]-1H-pyrrolo[2,3-b]pyridine] were, in that order, above 1 µM, below 0.1 µM and above 1 µM.
Taken in the same sequence, the figures for `CN(C)S(=O)(=O)Nc1cccc(C(=O)c2c[nH]c3ncc(-c4ccc(C5(C#N)CC5)cc4)cc23)c1F` [Compound P-0055, 5-[4-(1-cyanocyclopropyl)phenyl]-3-[3-(dimethylsulfamoylamino)-2-fluoro-benzoyl]-1H-pyrrolo[2,3-b]pyridine] were below 1 µM, below 0.1 µM and above 10 µM.
For `CCN(C)S(=O)(=O)Nc1cccc(C(=O)c2c[nH]c3ncc(-c4cnc(C)nc4)cc23)c1F` [Compound P-0056, 3-[3-[[ethyl(methyl)sulfamoyl]amino]-2-fluoro-benzoyl]-5-(2-methylpyrimidin-5-yl)-1H-pyrrolo[2,3-b]pyridine], the IC50 in experiment [1] is below 1 µM; in experiment [2], below 0.1 µM. For the same compound, the 50% effective concentration (EC50) in experiment [3] is above 10 µM.
`CCN(C)S(=O)(=O)Nc1cccc(C(=O)c2c[nH]c3ncc(-c4cnc(C(C)C)nc4)cc23)c1F` [Compound P-0057, 3-[3-[[ethyl(methyl)sulfamoyl]amino]-2-fluoro-benzoyl]-5-(2-isopropylpyrimidin-5-yl)-1H-pyrrolo[2,3-b]pyridine]: the IC50 in experiment [1] was below 1 µM; in experiment [2], below 0.1 µM. The same compound returned an EC50 in experiment [3] above 10 µM.
The like results for `CCN(C)S(=O)(=O)Nc1cccc(C(=O)c2c[nH]c3ncc(-c4cnc(C5CC5)nc4)cc23)c1F` [Compound P-0058, 5-(2-cyclopropylpyrimidin-5-yl)-3-[3-[[ethyl(methyl)sulfamoyl]amino]-2-fluoro-benzoyl]-1H-pyrrolo[2,3-b]pyridine] were, in that order, below 1 µM, below 0.1 µM and above 10 µM.
As for `CCN(C)S(=O)(=O)Nc1cccc(C(=O)c2c[nH]c3ncc(-c4ccc(C(F)(F)F)nc4)cc23)c1F` [Compound P-0059, 3-[3-[[ethyl(methyl)sulfamoyl]amino]-2-fluoro-benzoyl]-5-[6-(trifluoromethyl)-3-pyridyl]-1H-pyrrolo[2,3-b]pyridine], the IC50 in experiment [1] is below 1 µM; in experiment [2], below 0.1 µM. This compound also showed an EC50 in experiment [3] above 10 µM.
On to `CCN(C)S(=O)(=O)Nc1cccc(C(=O)c2c[nH]c3ncc(-c4ccc(C#N)c(OC)c4)cc23)c1F` [Compound P-0060, 5-(4-cyano-3-methoxy-phenyl)-3-[3-[[ethyl(methyl)sulfamoyl]amino]-2-fluoro-benzoyl]-1H-pyrrolo[2,3-b]pyridine], for which the IC50 in experiment [1] is below 1 µM; in experiment [2] it was below 0.1 µM. Besides, the EC50 in experiment [3] is above 2 µM.
For `O=C(c1cccc(NS(=O)(=O)N2CCCC2)c1F)c1c[nH]c2ncc(-c3ccc(F)cc3)cc12` [Compound P-0062, N-[2-fluoro-3-[5-(4-fluorophenyl)-1H-pyrrolo[2,3-b]pyridine-3-carbonyl]phenyl]pyrrolidine-1-sulfonamide], the values for the half-inhibitory concentration (IC50) in experiment [1] and in experiment [2] were below 1 µM and below 0.1 µM, respectively. The compound further yielded an EC50 in experiment [3] above 10 µM.
Take `O=C(c1cccc(NS(=O)(=O)N2CCCC2)c1F)c1c[nH]c2ncc(-c3ccccc3)cc12` [Compound P-0063, N-[2-fluoro-3-(5-phenyl-1H-pyrrolo[2,3-b]pyridine-3-carbonyl)phenyl]pyrrolidine-1-sulfonamide]: the figures for the IC50 in experiment [1] and in experiment [2] were below 1 µM and below 0.1 µM, respectively. This compound also displayed an EC50 in experiment [3] above 10 µM.
The like results for `CN(C)S(=O)(=O)Nc1cccc(C(=O)c2c[nH]c3ncc(-c4cnc(NC5CC5)nc4)cc23)c1F` [Compound P-0064, 5-[2-(cyclopropylamino)pyrimidin-5-yl]-3-[3-(dimethylsulfamoylamino)-2-fluoro-benzoyl]-1H-pyrrolo[2,3-b]pyridine] were, in that order, below 1 µM, below 0.1 µM and above 10 µM.
With `CC(C)N(C)S(=O)(=O)Nc1cccc(C(=O)c2c[nH]c3ncc(-c4cnc(C5CC5)nc4)cc23)c1F` [Compound P-0233, 5-(2-cyclopropylpyrimidin-5-yl)-3-[2-fluoro-3-[[isopropyl(methyl)sulfamoyl]amino]benzoyl]-1H-pyrrolo[2,3-b]pyridine], the IC50 is above 1 µM in experiment [4], above 1 µM in experiment [1] and below 0.1 µM in experiment [2].
`CC(C)(O)c1nc(-c2cnc3[nH]cc(C(=O)c4c(F)ccc(NS(=O)(=O)N5CCCC5)c4F)c3c2)cs1` [Compound P-0265, N-[2,4-difluoro-3-[5-[2-(1-hydroxy-1-methyl-ethyl)thiazol-4-yl]-1H-pyrrolo[2,3-b]pyridine-3-carbonyl]phenyl]pyrrolidine-1-sulfonamide]: the IC50 in experiment [1] is below 1 µM; in experiment [2], below 0.1 µM. The concentration giving a half-maximal response (EC50) in experiment [3] is above 2 µM.
The like results for `O=C(c1c(F)ccc(NS(=O)(=O)N2CCCC2)c1F)c1c[nH]c2ncc(-c3ccnc(C4CC4)c3)cc12` [Compound P-0295, N-[3-[5-(2-cyclopropyl-4-pyridyl)-1H-pyrrolo[2,3-b]pyridine-3-carbonyl]-2,4-difluoro-phenyl]pyrrolidine-1-sulfonamide] were, in that order, below 1 µM, below 0.1 µM and above 2 µM.
On to `CNS(=O)(=O)Nc1ccc(F)c(C(=O)c2c[nH]c3ncc(-c4cnc(C5CC5)nc4)cc23)c1F` [Compound P-0334, [5-(2-cyclopropylpyrimidin-5-yl)-1H-pyrrolo[2,3-b]pyridin-3-yl]-[2,6-difluoro-3-(methylsulfamoylamino)phenyl]methanone], for which the results for the IC50 in experiment [1] and in experiment [2] were above 1 µM and below 0.1 µM, respectively. In experiment [3], this compound displayed an EC50 above 2 µM.
